Data taken from patent publication US7723388B2, “Avian appeasing pheromones to decrease stress, anxiety and aggressiveness” (priority 2002, dated 2010).

Test system: population of mites (Dermanyssus gallinae, Omithonyssus sylvianm)
Assay: In vitro sensitivity of the mite population to mite treatments
Details: for Dose to obtain LD50 / Dose to obtain LD100: pd: prescribed dose; for Dose to obtain LD50: 50% of mites killed over 24 hours; for Dose to obtain LD100: 100% of mites killed in 24 hours; for LD 100 at the dose of the product notice: surroundings corresponding to the conditions of breeding
Method: Mites were also tested for during the course of this example. At day 0, the first diffusers of the avian appeasing pheromone were posed and the sampling of mites was effectuated. For the 12 samples that were taken, 5 samples permitted the identification of the species of mites in the breeding; 3 were utilized and placed in a mite culture and recuperated at the end of the internal experiment; and 4 served to test the sensitivity of parasites to the mites used.
On the 5 samples effectuated, […] samples of parasites were identified. 76% (n=86) were identified as Dermanyssus gallinae (chicken mites) and 24% (n=28) were Omithonyssus sylvianm (Northern Fowl mites).
Testing the sensitivity of the mites was next conducted. This test was performed in the population of mites with an in vitro system that verifies the sensitivity of the mite treatment utilized (Carbamate).
The parasites were thus exposed to a variety of concentrations of miticide. The dosage was determined by the value of the notice of dosage recommendation on the product.
Under experimental conditions 2 lots (T1 and T2) were subjected to the tests. The T1 lot corresponded to a universal test, which is not authorized in breeding since Ivermectine was used. Lot 2 corresponded to a test made with Amitraze.

Compound	Dose to obtain LD50	Dose to obtain LD100	LD 100 at the dose of the product notice
Ivermectine	1 pd	1 pd	obtained with the doses prescribed
Cc1ccc(/N=C/N(C)/C=N/c2ccc(C)cc2C)c(C)c1 [Amitraze]	1 pd	1 pd	obtained with the doses prescribed
